# Data from patent US20170008888A1 (KYORIN PHARMACEUTICAL CO., LTD., priority 2014, published 2017).
# pKd: −log10 of the molar value. Where two headings read alike, the source gives them in different places.
# How the values were obtained:
# cynomolgus monkey PBMCs = experiment: Cytokine response by primary cynomolgus monkey PBMCs stimulated with LPS; assay type: cell-based, cynomolgus monkey (M. fascicularis); conditions: Macaca fascicularis, PBMC, 100 ng/ml LPS 20 h
# Description: Freshly isolated cynomolgus monkey (M. fascicularis) peripheral blood mononuclear cells (PBMCs) were purchased from SNBL (Everett, Wash.). Cells were seeded at 1.8e6 cells/ml in RPMI 1640 (Life Technologies, Grand Island, N.Y.) containing 10% (v/v) charcoal-dextran treated, heat inactivated FBS (Omega Scientific, Tarzana, Calif.), 0.05 mM 2-Mercaptoethanol (Sigma-Aldrich, St. Louis, Mo.), and 1×Pen/Strep Amphotericin B (Lonza, Allendale, N.J.). Cells were pre-treated with 0.1% DMSO or with a test compound for 1 h at 37° C. in a humidified atmosphere at 5% CO2. Compounds were tested at 10 μM down by ⅕ in a 4-point serial dilution series. Cells were then stimulated with 100 ng/ml LPS from E. coli 0111:B4 (EMD Millipore, Billerica, Mass.) for 20 h at 37° C. in a humidified atmosphere at 5% CO2. Supernatant was collected and analyzed using the Milliplex Map Non-human Primate Cytokine Magnetic Bead Panel Kit (EMD Millipore) as per manufacturer's protocols. Magnetic beads were read on the Bio-Plex MAGPIX multiplex reader instrument using the accompanying xPONENT 4.2 acquisition software (Bio-Rad Laboratories, Hercules, Calif.). Data were analyzed via the Bio-Plex Manager software v6.1 (Bio-Rad Laboratories).
# BRD4 = target: T1, BRD4 (Homo sapiens, UniProt O60885); experiment: Bromodomain binding assay: BRD4
# T1 construct: read out by qPCR of the phage DNA
# Description: (§1) T7 phage strains displaying bromodomains were grown in parallel in 24-well blocks in an E. coli host derived from the BL21 strain. E. coli were grown to log-phase and infected with T7 phage from a frozen stock (multiplicity of infection=0.4) and incubated with shaking at 32° C. until lysis (90-150 minutes). The lysates were centrifuged (5,000×g) and filtered (0.2 μm) to remove cell debris. […] The liganded beads were blocked with excess biotin and washed with blocking buffer (SeaBlock (Pierce), 1% BSA, 0.05 Tween 20, 1 mM DTT) to remove unbound ligand and to reduce non-specific phage binding. […] Test compounds (T62 and 46) were prepared as 1000× stocks in 100% DMSO and subsequently diluted 1:10 in monoethylene glycol (MEG) to create stocks at 100× the screening concentration (resulting stock solution is 10% DMSO/90% MEG). The compounds were then diluted directly into the assays such that the final concentration of DMSO and MEG were 0.1% and 0.9%, respectively. All reactions were performed in polystyrene 96-well plates in a final volume of 0.135 ml. […] The bromodomain concentration in the eluates was measured by qPCR. Compounds were assayed for binding activity against a panel of 40 bromodomain-containing proteins.
# ATAD2A = target: T2, ATAD2A (Homo sapiens, UniProt Q6PL18); experiment: Bromodomain binding assay: ATAD2A
# T2 construct: T7 phage strains displaying bromodomains were grown in parallel; made in house; host or cells: E. coli host derived from BL21, infected with T7 phage
# Description: as §1
# ATAD2B = target: T3, ATAD2B (Homo sapiens, UniProt Q9ULI0); experiment: Bromodomain binding assay: ATAD2B
# T3 construct: T7 phage strains displaying bromodomains were grown in parallel; made in house; host or cells: E. coli host derived from BL21, infected with T7 phage
# Description: as §1
# BRD1 = target: T4, BRD1 (Homo sapiens, UniProt O95696); experiment: Bromodomain binding assay: BRD1
# T4 construct: T7 phage strains displaying bromodomains were grown in parallel; made in house; host or cells: E. coli host derived from BL21, infected with T7 phage
# Description: as §1
# BRD7 = target: T5, BRD7 (Homo sapiens, UniProt Q9NPI1); experiment: Bromodomain binding assay: BRD7
# T5 construct: T7 phage strains displaying bromodomains were grown in parallel; made in house; host or cells: E. coli host derived from BL21, infected with T7 phage
# Description: as §1
# BRPF1 = target: T6, BRPF1 (Homo sapiens, UniProt P55201); experiment: Bromodomain binding assay: BRPF1
# T6 construct: T7 phage strains displaying bromodomains were grown in parallel; made in house; host or cells: E. coli host derived from BL21, infected with T7 phage
# Description: as §1
# CECR2 = target: T7, CECR2 (Homo sapiens, UniProt Q9BXF3); experiment: Bromodomain binding assay: CECR2
# T7 construct: T7 phage strains displaying bromodomains were grown in parallel; made in house; host or cells: E. coli host derived from BL21, infected with T7 phage
# Description: as §1
# GCN5L2 = target: T8, GCN5L2 (Homo sapiens, UniProt Q92830); experiment: Bromodomain binding assay: GCN5L2
# T8 construct: made in house; host or cells: E. coli host derived from the BL21 strain (T7 phage lysate)
# Description: as §1
# TRIM24 = target: T9, TRIM24 (Homo sapiens, UniProt O15164); experiment: Bromodomain binding assay: TRIM24
# T9 construct: made in house; host or cells: E. coli host derived from the BL21 strain (T7 phage lysate)
# Description: as §1
# [1] = test system: diseased primary human synovial fibroblasts; experiment: Cytokine response by primary human synovial fibroblasts stimulated with IL-17A, TNF-α or both; assay type: cell-based; conditions: Fibroblast, 48 h
# Description: Primary synovial fibroblasts isolated from the knee of a patient diagnosed with rheumatoid arthritis/osteoarthritis were obtained from Asterand (Detroit, Mich.) and maintained in FGM-2 fibroblast growth medium (Lonza, Allendale, N.J.). Cells were seeded at approximately 1.6e4 cells/ml and incubated at 37° C. in a humidified atmosphere at 5% CO2 until the cells reached ˜90% confluence. Cells were pre-treated with the test compounds (10 μM down by ⅕ in a 4-point serial dilution series) for 1 h at 37° C. in a humidified atmosphere at 5% CO2. DMSO at a final concentration of 0.1% served as the non-inhibited control. […] Cells were stimulated with 10 ng/ml human recombinant IL-17A (eBioscience, San Diego, Calif.), 10 ng/ml TNF-α, (Cell Signaling Technology, Danvers, Mass.) or both, for 48 h. Supernatant was then collected and analyzed for cytokine concentrations using the Bio-Plex Pro Human Cytokine 17-Plex Panel supplemented with RANTES and VEGF Singleplex analytes (Bio-Rad Laboratories, Hercules, Calif.) according to the manufacturer's instructions. Magnetic beads were measured on the Bio-Plex MAGPIX multiplex reader instrument using the accompanying xPONENT 4.2 acquisition software (Bio-Rad Laboratories). Data were analyzed via the Bio-Plex Manager software v6.1 (Bio-Rad Laboratories).
# [2] = read-out: EC50 (μM) under LPS stimulation, G-CSF
# [3] = read-out: EC50 (μM) under LPS stimulation, GM-CSF
# [4] = read-out: EC50 (μM) under LPS stimulation, IFN-γ
# [5] = read-out: EC50 (μM) under LPS stimulation, IL-1ra
# [6] = read-out: EC50 (μM) under LPS stimulation, IL-1β
# [7] = read-out: EC50 (μM) under LPS stimulation, IL-4
# [8] = read-out: EC50 (μM) under LPS stimulation, IL-6
# [9] = read-out: EC50 (μM) under LPS stimulation, IL-8
# [10] = read-out: EC50 (μM) under LPS stimulation, IL-10
# [11] = read-out: EC50 (μM) under LPS stimulation, IL-12/IL-23 (p40)
# [12] = read-out: EC50 (μM) under LPS stimulation, MCP-1
# [13] = read-out: EC50 (μM) under LPS stimulation, MIP-1α
# [14] = read-out: EC50 (μM) under LPS stimulation, MIP-1β
# [15] = read-out: EC50 (μM) under LPS stimulation, TNF-α
# [16] = read-out: EC50 (μM) under LPS stimulation, VEGF
# [17] = read-out: EC50 (μM) under LPS stimulation, sCD40L
# [18] = +Both IL-17A + TNF-α, read-out: EC50 (μM), G-CSF
# [19] = +Both IL-17A + TNF-α, read-out: EC50 (μM), IL-6
# [20] = +Both IL-17A + TNF-α, read-out: EC50 (μM), IL-8
# [21] = +Both IL-17A + TNF-α, read-out: EC50 (μM), RANTES
# [22] = +IL-17A 10 ng/ml, read-out: EC50 (μM), G-CSF
# [23] = +IL-17A 10 ng/ml, read-out: EC50 (μM), IL-6
# [24] = +IL-17A 10 ng/ml, read-out: EC50 (μM), IL-8
# [25] = +IL-17A 10 ng/ml, read-out: EC50 (μM), RANTES
# [26] = +TNF-α 10 ng/ml, read-out: EC50 (μM), G-CSF
# [27] = +TNF-α 10 ng/ml, read-out: EC50 (μM), IL-6
# [28] = +TNF-α 10 ng/ml, read-out: EC50 (μM), IL-8
# [29] = +TNF-α 10 ng/ml, read-out: EC50 (μM), RANTES
# T7 sequence (Q9BXF3 434-538 limits assumed, species assumed): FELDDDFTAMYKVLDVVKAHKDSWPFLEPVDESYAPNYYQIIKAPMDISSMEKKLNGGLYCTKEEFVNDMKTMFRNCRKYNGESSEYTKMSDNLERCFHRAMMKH
# T2 sequence (Q6PL18 980-1092 limits assumed): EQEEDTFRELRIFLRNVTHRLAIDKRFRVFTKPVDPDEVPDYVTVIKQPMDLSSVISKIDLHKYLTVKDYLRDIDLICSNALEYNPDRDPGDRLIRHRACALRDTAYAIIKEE
# T5 sequence (Q9NPI1 131-235 limits assumed, species assumed): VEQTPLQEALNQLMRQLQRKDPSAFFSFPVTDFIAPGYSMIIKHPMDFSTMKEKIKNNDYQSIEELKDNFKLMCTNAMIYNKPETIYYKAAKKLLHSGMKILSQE
# T4 sequence (O95696 562-666 limits assumed, species assumed): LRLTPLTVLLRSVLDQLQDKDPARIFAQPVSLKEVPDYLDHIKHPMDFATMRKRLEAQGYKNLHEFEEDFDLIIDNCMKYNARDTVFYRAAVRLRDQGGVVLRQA
# T6 sequence (P55201 628-732 limits assumed, species assumed): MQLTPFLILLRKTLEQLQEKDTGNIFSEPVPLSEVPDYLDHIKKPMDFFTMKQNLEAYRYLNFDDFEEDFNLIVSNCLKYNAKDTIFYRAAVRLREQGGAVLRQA
# T8 sequence (Q92830 728-832 limits assumed): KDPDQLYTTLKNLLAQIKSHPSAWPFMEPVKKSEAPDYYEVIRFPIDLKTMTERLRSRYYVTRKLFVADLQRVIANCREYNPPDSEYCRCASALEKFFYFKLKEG
# T9 sequence (O15164 899-1004 limits assumed): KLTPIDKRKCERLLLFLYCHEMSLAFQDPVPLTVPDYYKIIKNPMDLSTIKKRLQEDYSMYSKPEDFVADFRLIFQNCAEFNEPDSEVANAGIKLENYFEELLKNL
# T3 sequence (Q9ULI0 951-1066 limits assumed, species assumed): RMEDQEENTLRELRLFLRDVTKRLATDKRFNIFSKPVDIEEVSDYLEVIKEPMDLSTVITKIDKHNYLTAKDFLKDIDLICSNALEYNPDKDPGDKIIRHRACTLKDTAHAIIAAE
Compound,EC50 (cynomolgus monkey PBMCs; [2]) [µM],EC50 (cynomolgus monkey PBMCs; [3]) [µM],EC50 (cynomolgus monkey PBMCs; [4]) [µM],EC50 (cynomolgus monkey PBMCs; [5]) [µM],EC50 (cynomolgus monkey PBMCs; [6]) [µM],EC50 (cynomolgus monkey PBMCs; [7]) [µM],EC50 (cynomolgus monkey PBMCs; [8]) [µM],EC50 (cynomolgus monkey PBMCs; [9]) [µM],EC50 (cynomolgus monkey PBMCs; [10]) [µM],EC50 (cynomolgus monkey PBMCs; [11]) [µM],EC50 (cynomolgus monkey PBMCs; [12]) [µM],EC50 (cynomolgus monkey PBMCs; [13]) [µM],EC50 (cynomolgus monkey PBMCs; [14]) [µM],EC50 (cynomolgus monkey PBMCs; [15]) [µM],EC50 (cynomolgus monkey PBMCs; [16]) [µM],EC50 (cynomolgus monkey PBMCs; [17]) [µM],Kd (BRD4) [nM],pKd (ATAD2A),pKd (ATAD2B),pKd (BRD1),also measured
CCOc1cc(C(=O)N2CCCN(C)CC2)ccc1Nc1cc2c(cn1)N(C)C(=O)c1ccccc1N2C [Compound 8],0.58,0.5,0.55,0.71,0.47,1.29,1.42,0.98,0.52,0.75,0.32,1.63,4.45,0.63,0.9,1.14,,,,,
"CCOc1cc(C(=O)N2CCC(N3CCCC3)CC2)ccc1Nc1cc2c(cn1)N(C)C(=O)c1ccccc1N2C [Compound 46, 3-(2-Ethoxy-4-(4-(pyrrolidin-1-yl)piperidine-1-carbonyl)phenylamino)-5,11-dimethyl-5H-benzo[e]pyrido[3,4-b][1,4]diazepin-10(11H)-one]",0.26,0.18,0.28,0.32,0.2,0.48,0.6,0.35,0.31,0.36,0.13,0.78,2.2,0.24,0.45,0.41,41,< 4.70,< 4.70,< 4.70,pKd (BRD7): < 4.70; pKd (BRPF1): < 4.70; pKd (CECR2): < 4.70; pKd (GCN5L2): < 4.70; pKd (TRIM24): < 4.70
CCOc1cc(C(=O)N2CCC(N3CCN(C)CC3)CC2)ccc1Nc1cc2c(cn1)N(C)C(=O)c1ccccc1N2C [Compound 61],,,,,,,,,,,,,,,,,,,,,"EC50 [1, 18]: > 10 µM; EC50 [1, 19]: > 10 µM; EC50 [1, 20]: > 10 µM; EC50 [1, 21]: 1.35 µM; EC50 [1, 22]: 2.59 µM; EC50 [1, 23]: 1.67 µM; EC50 [1, 24]: 0.87 µM; EC50 [1, 25]: > 10 µM; EC50 [1, 26]: 1.27 µM; EC50 [1, 27]: 1.05 µM; EC50 [1, 28]: 4.51 µM; EC50 [1, 29]: 2.78 µM"
CCOc1cc(C(=O)N2CC[C@@H](N(C)C)C2)ccc1Nc1cc2c(cn1)N(C)C(=O)c1ccccc1N2C [Compound 115],,,,,,,,,,,,,,,,,,,,,"EC50 [1, 18]: > 10 µM; EC50 [1, 19]: > 10 µM; EC50 [1, 20]: > 10 µM; EC50 [1, 21]: 1.88 µM; EC50 [1, 22]: 2.67 µM; EC50 [1, 23]: 1.04 µM; EC50 [1, 24]: 0.39 µM; EC50 [1, 25]: > 10 µM; EC50 [1, 26]: 1.25 µM; EC50 [1, 27]: 1.71 µM; EC50 [1, 28]: > 10 µM; EC50 [1, 29]: > 10 µM"
CCOc1cc(C(=O)N[C@H]2CC[C@H](O)CC2)ccc1Nc1cc2c(cn1)N(C)C(=O)c1ccccc1N2C [Compound T62],,,,,,,,,,,,,,,,,97,< 4.70,< 4.70,< 4.70,pKd (BRD7): < 4.70; pKd (BRPF1): < 4.70; pKd (CECR2): < 4.70; pKd (GCN5L2): < 4.70; pKd (TRIM24): < 4.70
